The results in this text go back to ChEMBL document CHEMBL1143947, “Synthesis and in silico biological activity evaluation of new N-substituted pyrazolo-oxazin-2-one systems” (Bioorg Med Chem, 2008).

Assay [1] deals with Prostaglandin G/H synthase 1 (Ovis aries) (UniProt P05979). Description: Inhibition of COX1 at 100 uM.
Assay [2] has the same target. Description: Inhibition of COX1 at 200 uM.
The target is the same in assay [3]. Description: Inhibition of COX1.

Prostaglandin G/H synthase 1 (Ovis aries), sequence (P05979 whole entry, looked up): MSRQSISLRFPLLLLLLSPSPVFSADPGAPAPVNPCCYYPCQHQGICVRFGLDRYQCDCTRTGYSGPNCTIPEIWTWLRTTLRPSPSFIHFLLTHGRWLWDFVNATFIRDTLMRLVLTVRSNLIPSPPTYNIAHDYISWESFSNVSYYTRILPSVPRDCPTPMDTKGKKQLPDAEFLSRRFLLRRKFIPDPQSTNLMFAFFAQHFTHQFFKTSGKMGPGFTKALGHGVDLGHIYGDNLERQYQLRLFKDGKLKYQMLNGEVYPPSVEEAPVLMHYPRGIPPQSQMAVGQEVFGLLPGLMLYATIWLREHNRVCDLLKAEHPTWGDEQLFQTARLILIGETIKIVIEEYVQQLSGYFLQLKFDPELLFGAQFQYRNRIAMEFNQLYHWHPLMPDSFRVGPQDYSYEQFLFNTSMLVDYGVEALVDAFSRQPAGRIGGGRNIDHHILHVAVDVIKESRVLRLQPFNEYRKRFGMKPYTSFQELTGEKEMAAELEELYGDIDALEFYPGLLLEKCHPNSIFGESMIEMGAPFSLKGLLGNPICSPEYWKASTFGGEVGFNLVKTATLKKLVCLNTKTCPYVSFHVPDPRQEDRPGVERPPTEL

A word on the inhibition: it is the share of the control response that was lost under treatment. Low values mean little suppression, high ones strong suppression. Take `CCN1C(=O)O/C(=C2/C(=O)N(c3ccccc3)N=C2C)C=C1C`: the values for the inhibition in assay [1] and in assay [2] were 0% and 19.9%, respectively.

The IC50 is the midpoint of a concentration-inhibition curve. A low value points to inhibition by little substance. `CC1=C/C(=C2\C(=O)N(c3ccccc3)N=C2C)OC(=O)N1c1ccc(C)cc1` displayed an IC50 in assay [3] of 91.2 µM. In addition, the inhibition in assay [1] came out at 54.6%.

Regarding `COc1ccc(N2C(=O)O/C(=C3/C(=O)N(c4ccccc4)N=C3C)C=C2C)cc1`, it took 269 µM to reach half-maximal inhibition in assay [3] (IC50). In addition, the inhibition in assay [1] was 22.6%.

In assay [3], `CC1=C/C(=C2\C(=O)N(c3ccccc3)N=C2C)OC(=O)N1c1ccc(Cl)cc1` returned an IC50 of 251 µM. For the same compound, the inhibition in assay [1] is 21.9%.

In the case of `CC1=C/C(=C2\C(=O)N(c3ccccc3)N=C2C)OC(=O)N1c1ccccc1`, half-maximal inhibition in assay [3] (IC50) was put at 79.4 µM. In assay [1], the inhibition was 61.8%.

In assay [1], `CCCN1C(=O)O/C(=C2/C(=O)N(c3ccccc3)N=C2C)C=C1C` gave an inhibition of 16%.

As to `CC1=C/C(=C2\C(=O)N(c3ccccc3)N=C2C)OC(=O)N1Cc1ccccc1`, the inhibition in assay [1] was 18%.

In assay [1], `CC1=C/C(=C2\C(=O)N(c3ccccc3)N=C2C)OC(=O)N1c1ccc(Br)cc1` registered an inhibition of 15%.
